By IC50 is commonly meant the midpoint of a concentration-inhibition curve.

In data set [1] the target is T1, TXNRD1 (Homo sapiens, UniProt Q16881).
T1 construct: made in house
T1 sequence (Q16881 1-499 isoform Q16881-5): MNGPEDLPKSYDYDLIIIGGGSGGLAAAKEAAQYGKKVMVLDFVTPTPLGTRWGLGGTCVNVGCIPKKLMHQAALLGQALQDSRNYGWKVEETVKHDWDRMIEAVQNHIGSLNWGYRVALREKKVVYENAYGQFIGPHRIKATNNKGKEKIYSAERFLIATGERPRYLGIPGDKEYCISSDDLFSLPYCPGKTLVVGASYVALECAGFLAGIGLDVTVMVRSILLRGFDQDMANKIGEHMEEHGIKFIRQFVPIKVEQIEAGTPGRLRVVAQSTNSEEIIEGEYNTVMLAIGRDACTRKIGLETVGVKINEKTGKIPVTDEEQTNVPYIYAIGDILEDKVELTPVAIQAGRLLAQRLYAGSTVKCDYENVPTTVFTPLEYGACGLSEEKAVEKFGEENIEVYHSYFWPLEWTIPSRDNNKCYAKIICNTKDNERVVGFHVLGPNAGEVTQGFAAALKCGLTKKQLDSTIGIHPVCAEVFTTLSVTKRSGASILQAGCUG
Nature of the data set: TXNRD1 activity assay, pure enzyme (Fig. 1A). In kind it is biochemical. Here is the method: (§1) Recombinant human proteins—Recombinant human selenoprotein GPX and TXNRD isoenzymes as well as recombinant human GR were cloned, expressed, and purified as described previously [[26], [27], [28]].
(§2) TXNRD1 selenite and DTNB assays were run as previously described [[26], [27], [28]]. Dose-response curves and IC50s were generated using Excel and GraphPad Prism. Briefly, initial slopes of NADPH consumption were normalized to DMSO controls and IC50s were calculated using log(inhibitor) vs. response—Variable slope (four parameters).

Data set [2] deals with GPX4. Also on record: method as in PMID 33812801. The settings on record: cited from earlier work.
Data set [3] concerns malondialdehyde (MDA) and Ptgs2 mRNA levels. On the set-up: method as in PMID 32732975. The settings on record: hemochromatosis mouse model; reversed by Ferrostatin-1; cited from earlier work.
The target in data set [4] is T2, GPX1 (Homo sapiens, UniProt P07203).
T2 construct: made in house
T2 sequence (P07203 1-203): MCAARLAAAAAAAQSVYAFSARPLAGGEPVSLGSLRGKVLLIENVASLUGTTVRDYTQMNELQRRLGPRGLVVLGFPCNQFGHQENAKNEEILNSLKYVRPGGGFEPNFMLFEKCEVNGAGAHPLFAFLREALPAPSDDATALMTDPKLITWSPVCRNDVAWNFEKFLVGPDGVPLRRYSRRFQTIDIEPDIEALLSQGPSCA
Nature of the data set: GPX1 activity assay, pure enzyme (NADPH consumption, cumene hydroperoxide). The format is biochemical. The settings on record: for IC50: recombinant GPX1, 30 min preincubation, read-out: IC50 GPX1 inhibition. As for the experimental part: as §1
(§3) Biochemical assays—GPX assays were run as previously described [[26], [27], [28]] in a clear medium-binding 96-well SpectraPlates (PerkinElmer). Briefly, 198 μL of 10 nM GPX1 or 200 nM GPX4 were incubated with 2 μL compounds or DMSO in TES buffer (50 mM Tris-HCl, 2 mM EDTA (pH 7.5), 150 mM NaCl) with BSA at room temperature for 30 min. Then, 40 μL of master mix (100 nM GR, 1 mM GSH, 0.5 mM NADPH in TES buffer) was added. To start the reaction, 10 μL of Cumene hydroperoxide ([0.5 mM] in 50% EtOH) was then added. Absorbance at 340 nm was measured using a Tecan Infinite® M Nano microplate reader every 20 s for 30 min. Four replicates were run, unless otherwise stated.

Data set [5] deals with T1, TXNRD1. Nature of the data set: TXNRD1 orthogonal assays (selenite reduction, DTNB reduction; Extended Data Fig. 2). In kind it is biochemical. The settings on record: selenite and DTNB assays. As for the experimental part: as §2
Supplementary Data Extended Data Set
(Extended Data Fig. 2A, left panel). Measuring inhibition of TXNRD1 activity, as a complement to the analyses shown in the main text of this article, we also assessed this using two orthogonal approaches: 1. by the measurement of NADPH consumption coupled to direct selenite reduction of TXNRD1, either through the decrease in absorbance at 340 nm or decrease in its fluorescence, and 2. measuring TXNRD1-catalyzed DTNB reduction based upon quantification of TNB- anions absorbing at 412 nm as formed upon TXNRD1-catalyzed reduction of the disulfide in DTNB. Using these assays, we could confirm that the RSL3 inhibition of TXNRD1 was not an artifact due to specific assay conditions, with both RSL3 and ML162 showing complete inhibition of TXNRD1 at the higher end of the concentrations assessed here (2.8 ± 0.9% and 5.8 ± 0.9% remaining activity with just 5 µM of RSL3 and […]
ML162 (Extended Data Fig. 2A, middle and right panels, and 2B). […]
any inhibition of TXNRD1 in any of the assays. […]
µM, respectively (Extended Data Fig. 2B). Like with TRi-1 and TRi-2, inhibition of both TXNRD1 and TXNRD2 by RSL3 and ML162 was essentially dependent on pre-reduction of the enzyme by NADPH in order to yield potent and complete inactivation. Both compounds […]
ML162 in the absence of NADPH and subsequently assayed for activity; however, this could also be due to carry-over of the compounds to the NADPH dependent enzyme activity assay.
Because the reduction step with NADPH reduces a selenenylsulfide at the C-terminal active […]
of the selenolate at the C-terminal active site of the NADPH-reduced enzyme. That some […]
compounds might also bind some other additional site(s) in the enzyme. That notion is further strengthened by the fact that thermostability of TXNRD1 was also affected at higher concentrations of compounds when incubated with the enzyme in the absence of NADPH (see […]
dose-response curve fit to the average of n = 3 technical replicates. […]
well (middle left panel) and 1536-well format (not shown), as well as a DTNB assay (middle […]
TXNRD2 by RSL3 (left panel), ML162 (middle left panel), TRi-1 (middle right panel), and TRi-2 (right panel) are modulated by NADPH pre-treatment; Data are presented as mean ± s.d.; Four-parameter dose-response curve fit to the average of n = 3 technical replicates (n = 2

In data set [6] the test system is A549 cells. Nature of the data set: A549 viability in cellular TXNRD1 (RX1) experiments. The settings on record: A549, 4 h, Extended Data Fig. 3A.
Method: Cellular TXNRD1 assay—20,000 or 10,000 A549 cells (for 4 h or 12 h and 24 h compound incubation respectively) were seeded in 96-well plates (microplates, 96 well, F-bottom, black, clear bottom, ViewPlateTM-96 F TC, PerkinElmer), in a total volume of 100 μL full DMEM (supplemented with 10% FBS and 100 nM Na2SeO3). The cells were incubated for 16 h at 37 °C and 5% CO2, followed by media change and addition of indicated compounds at respective concentrations (0.1 μM–20 μM), including 0.6% DMSO. The cells were subsequently incubated for the respective mentioned time, washed once with full DMEM and fresh, full DMEM, containing 75 μM RX1 and 0.75% DMSO, was added and the first fluorescent measurement was conducted immediately (timepoint = 0) using a Tecan Infinite M200 plate reader (ex/em 355/520). To follow the kinetic activation of RX1, a fluorescent measurement was done every hour for 6 h. Between measurements, cells were stored at 37 °C and 5% CO2. As a control, cells treated with compounds, but not with RX1, just the respective DMSO content, were used for background fluorescent. To determine how the cells were viable throughout the RX1 assay, the control cells were used for a viability measurement, using CellTiter-Glo® Luminescent Cell Viability Assay, after the final fluorescent measurement. For final data analysis, raw data was processed using Microsoft Excel and GraphPad Prism. In brief, the slope of the activated RX1 fluorescence increase was in each case calculated and normalized, using the viability measurement of the control cells.
Extended Data Figure 3: A549 cytotoxicity in cellular TXNRD1 experiments following final
A) Cell viability following 4-hour incubation with
compounds; B) Viability following 12-hour incubation with compounds; C) Viability
following 24 -hour incubation with compounds. The cell viability in was in each case measured
using the Cell Quanti-BlueTM Cell Viability Assay Kit and the data are presented as mean ±
s.d. of n = 3 biological replicates, each containing n = 3 technical replicates.
Data set [7] deals with T3, GPX4 (Homo sapiens, UniProt P36969).
T3 construct: made in house
T3 sequence (P36969 1-170 isoform P36969-2): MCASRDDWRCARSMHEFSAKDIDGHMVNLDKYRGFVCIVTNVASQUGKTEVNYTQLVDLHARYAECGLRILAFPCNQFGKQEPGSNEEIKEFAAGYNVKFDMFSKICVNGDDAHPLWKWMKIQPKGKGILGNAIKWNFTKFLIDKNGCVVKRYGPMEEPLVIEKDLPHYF
Nature of the data set: GPX4 activity assay, pure enzyme (NADPH consumption, cumene hydroperoxide). In kind it is biochemical. The settings on record: for IC50: recombinant GPX4, 30 min preincubation, read-out: IC50 GPX4 inhibition. As for the experimental part:
as §1, §3

The target in data set [8] is T4, TXNRD1 (Homo sapiens, UniProt Q16881).
T4 construct: RX1 probe that specifically reports upon TXNRD1 enzymatic activity in live cells; endogenous in cells; host or cells: A549
T4 sequence (Q16881 151-649 limits assumed): T1 sequence (Q16881 1-499 isoform Q16881-5)
Nature of the data set: Cellular TXNRD1 assay with RX1 probe in A549 cells. In kind it is cell-based.
Method: Cellular TXNRD1 assay—20,000 or 10,000 A549 cells (for 4 h or 12 h and 24 h compound incubation respectively) were seeded in 96-well plates (microplates, 96 well, F-bottom, black, clear bottom, ViewPlateTM-96 F TC, PerkinElmer), in a total volume of 100 μL full DMEM (supplemented with 10% FBS and 100 nM Na2SeO3). […] The cells were subsequently incubated for the respective mentioned time, washed once with full DMEM and fresh, full DMEM, containing 75 μM RX1 and 0.75% DMSO, was added and the first fluorescent measurement was conducted immediately (timepoint = 0) using a Tecan Infinite M200 plate reader (ex/em 355/520). To follow the kinetic activation of RX1, a fluorescent measurement was done every hour for 6 h. Between measurements, cells were stored at 37 °C and 5% CO2. As a control, cells treated with compounds, but not with RX1, just the respective DMSO content, were used for background fluorescent. To determine how the cells were viable throughout the RX1 assay, the control cells were used for a viability measurement, using CellTiter-Glo® Luminescent Cell Viability Assay, after the final fluorescent measurement. For final data analysis, raw data was processed using Microsoft Excel and GraphPad Prism. In brief, the slope of the activated RX1 fluorescence increase was in each case calculated and normalized, using the viability measurement of the control cells.

Data set [9] has as its target T3, GPX4. Nature of the data set: nano differential scanning fluorimetry, GPX4. In kind it is binding. The settings on record: 100 μM compound; DMSO control 51.7 °C. Here is the method: Nano differential scanning fluorimetry—Real-time monitoring of fluorescence emission at 330 nm and 350 nm (excitation wavelength: 280 nm) and backscattering absorbance of GPX4 and TXNRD1 samples in the presence of compound was performed using a NanoTemper Prometheus NT.48 instrument. First, 0.25 mg/mL enzyme was incubated with 100 μM compound or DMSO for 15 min at room temperature. Standard capillaries were used, and temperature was increased from 25 to 95 °C with a ramp rate of 4.0 °C/min. Three biological replicates were carried out for each condition, and their means and standard deviations are depicted.
A general note: DSF heats the sample and reads unfolding from a dye or from intrinsic fluorescence.

The mark [10] stands for this setting: recombinant selenoprotein, pure enzyme system.

In the case of `CC(=O)OC[C@H]1O[C@@H]([S-])[C@H](OC(C)=O)[C@@H](OC(C)=O)[C@@H]1OC(C)=O.CCP(CC)CC.[Au+]` [Auranofin, auranofin], the IC50 in [1] (recombinant TXNRD1, Fig. 1A assay conditions, read-out: IC50 TXNRD1 inhibition) was about 19 µM; in [4], 4.7 µM. Besides, the “Effect on GPX4 expression levels” value in [2] was “decrease GPX4 expression levels”. In [3], the “Hepatic malondialdehyde (MDA) and Ptgs2 mRNA levels” value is recorded as “increase in hepatic malondialdehyde (MDA)”.

In the case of `Cc1onc(C(=O)N2CCN(C(c3ccc(Cl)cc3)c3ccc(Cl)cc3)CC2)c1[N+](=O)[O-]` [ML210], in [5], the “Inhibition of TXNRD1 in any of the assays” value is reported as “did not show any inhibition of TXNRD1”. Further, the “Effect on cell viability at 4 h” value in data set [6] is given as “no overt effects on viability”. Also, the “Inhibition of GPX4” value in [7] (setting [10]) is reported as “neither RSL3, ML162, nor ML210 inhibited either GPX isoenzyme”. Also, the “Effect on cellular TXNRD1 activity (RX1)” value in [8] (A549, 20 μM) was “slightly suppressed TXNRD1 activity”; in data set [8] (A549, 0.5–1 μM), “tendency to increase the TXNRD1 activity”. In addition, the “Effect on cellular TXNRD1 activity (RX1) at 4 h” value in [8] (A549, 4 h incubation, RSL3 and ML162 at 1 μM or higher) is reported as “increase in TXNRD1 activity”. The “Tm of GPX4 (nanoDSF)” value in [9] was 52.1 °C. Also, in data set [4] (setting [10]), the “Inhibition of GPX1” value is reported as “neither RSL3, ML162, nor ML210 inhibited either GPX isoenzyme”.

As to `OC[C@H]1O[C@H]([S-])[C@H](O)[C@@H](O)[C@@H]1O.[Au+]` [aurothioglucose], the “Specificity among GPX1, GPX4, GR and TXNRD1” value in data set [1] (pure enzyme systems, Fig. 1A lower panels) is on record as “only showed TXNRD1 inhibition”.

For the molecule `O=C(O)CC(S)C(=O)O` (centres unmarked) [mercaptosuccinic acid], the IC50 in data set [7] and in [4] was under 10 µM each time.

For `[Cl][Hg][Cl]` [mercuric chloride], the IC50 in data set [7] and in data set [4] was under 10 µM each time.

These data come from PMC10149367, “The ferroptosis inducing compounds RSL3 and ML162 are not direct inhibitors of GPX4 but of TXNRD1” (Redox Biology, 2023).
